{"source": "patent US20250058002A1", "about": "“ELECTROCHEMICAL INHIBITION OF REDOX ACTIVE BACTERIA AND RELATED DEVICES, METHODS AND SYSTEMS” (priority 2023, published 2025)", "key": {"PA14 [1]": {"system": "PA14", "assay": "Redox cycles over 7 days and support of survival (Table 4)", "format": "cell-based, P. aeruginosa", "source_text": "(§1) Phenazines and other redox active compound in the sense of the disclosure can be further characterized by various electrical properties such as a standard electrode potential E° vs. NHE of −500 mV to 500 mV and other properties such as number of redox cycle over a certain period of time (e.g. number of days) as ability to support survival and susceptibility to reduction by enzymes and/or bacterial strains."}, "PA14 [2]": {"system": "PA14", "assay": "Reduction of redox-active compound by PA14 (Table 4)", "format": "cell-based, P. aeruginosa", "source_text": "as §1"}, "[3]": {"assay": "Midpoint potential E1/2 by voltammetry vs Ag/AgCl (3M KCl)", "format": "physicochemical", "settings": "for E1/2 (vs. Ag/AgCl (3M KCl))/mV: Example 15 table", "method": "The purified redox-active molecule can be dissolved in aqueous solution at appropriate concentration in the presence of supporting electrolyte and buffer to select the pH of measurement. For example, the redox-active molecule can be dissolved in 10 μM-10 mM concentrations in distilled, deionized water (DDW). The supporting electrolyte can be a salt such as NaCl or KCl at 0.01-0.5 M concentrations, for example, dissolved in DDW. The buffer can be 10 mM ammonium acetate/3-(N-morpholino)propanesulfonic acid at pH 7, or phosphate-buffered saline (PBS) at pH 7.4, or sodium acetate buffer at pH 5, or di-sodium hydrogen phosphate/potassium dihydrogen phosphate at pH 9, or boric acid/citric acid/trisodium phosphate for a wide range of pH values, for example.\nVoltammetric methods are then used to characterize the electrochemical behavior of the redox-active molecule in such solution, with a potentiostat such as a Gamry PC4-300, using a three-electrode setup with working electrode (glassy carbon, or platinum, or gold), counter electrode (platinum wire) and reference electrode (Ag/AgCl (3M KCl), or SCE, or NHE; values are reported relative to Ag/AgCl (3M KCl) which has potential +197 mV vs. NHE at 298K).\nFor example, cyclic voltammetry may be used. In a cyclic voltammetry experiment phenazines will show a peak on the cathodic sweep (denoted Epc) corresponding to the reduction of the redox molecule.\nThe reverse, anodic sweep will show a peak (denoted Epa) corresponding to the re-oxidation of the redox molecule. If the electrode reaction is diffusion-controlled and reversible, the cathodic and anodic peak currents will be equal in area, and the mid-point between these peaks may be taken as the formal reduction potential of the redox molecule under the experimental conditions used. This value can interchangeably be referred to as the “midpoint potential” or “mid-peak potential”, denoted E1/2.\nPYO was purified from aerobic bacterial cultures and was dissolved in 0.1 M KCl aqueous solution buffered with 10 mM ammonium acetate-3-(N-morpholino)propanesulfonic acid (5 mM each, pH 7) to yield a stock solution concentration of 829 μM PYO. Electrochemical measurements were performed with a Gamry PC4-300 potentiostat. A stationary gold disk electrode (BASi) was used as the working electrode, an Ag/AgCl electrode (RE-51, BASi) as the reference, and a straight platinum wire (BASi) was the counter electrode. Scans were performed between 20 and 500 mV/s in the potential range of around E1/2 (+/−300 mV), at 298 K.\nAs described in en.wikipedia.org/wiki/Nernst_equation, the Nernst equation relates E1/2 measured at pH 7 to the E1/2 at a different pH by:\n[formula] • where E1/2 is in V • h is the number of protons transferred in the electrochemical reaction • e is the number of electrons transferred in the electrochemical reaction"}, "[4]": {"settings": "oxidized form; literature values (footnotes a, c, d); cited from earlier work"}, "[5]": {"settings": "from Wang and Newman (2008), cited from earlier work"}, "[6]": {"system": "P. aeruginosa PA14 biofilms", "assay": "Anoxic survival (CFU) of electrode-attached wild type biofilms at poised potential with sub-MIC antibiotics", "format": "cell-based, P. aeruginosa UCBPP-PA14", "settings": "for decrease in cell survival under PYO-reductive conditions compared with OC: −400 mV vs OC, 1 μg/mL meropenem or 4 μg/mL ciprofloxacin; for effect on wild type biofilms under PYO-reductive conditions (in words): anoxic, sub-MIC antibiotic", "method": "(§2) Electrochemical reactors and biofilm growth. Double-jacketed electrochemical reactors (Pine Instruments, 250 ml, wide center port 29/26) were used with ITO-coated 0.2 mm thick boro-aluminosilicate glass slides (Delta Technologies, 24×60 mm, Rs=7-10Ω) as working electrodes, freshly sanded graphite rods (Alfa Aesar) as counter electrodes, and Ag/AgCl in 3M KCl reference electrodes (BASi). Silver epoxy (Electron Microscopy Sciences) was used to make electrical connection between insulated wire ([…]) and working electrode and was insulated using 5 Minute® expoxy (Devcon). Working electrodes were assembled within 5 hours of use. Reactors were sterilized by autoclaving without reference or working electrodes, which were sterilized by submerging in 10% bleach for 5 minutes or 30 seconds, respectively, and rinsed in sterile water. Individual mid-log liquid cultures (OD600 0.45-0.55) were used to inoculate sterile reactors containing 140 ml of MM (described above) with 0.1% (vol/vol) for each biological replicate. Antibiotics were not added at this point. Working electrodes were poised at either open circuit, +100 mV, or −400 mV vs. Ag/AgCl (+310 mV and −190 mV vs the standard hydrogen electrode, respectively). Reactors were aerated using an aquarium pump with a 0.2 μm filter (Thermo Scientific) and heated to 31° C. using a circulating water bath (Haake A 25, Thermo Scientific). Fresh medium was exchanged every 24 hours for 5 days. After 5 days of aerobic growth, working electrode-attached biofilms were rinsed in sterile medium to remove planktonic cells and transferred to sterile reactors with fresh MM previously flushed for 2 hours with N2 ultra-high purity gas (NRL supply store). For antibiotic exposure experiments, antibiotics were added to sterile media before flushing with N2. For PYO-addition experiments, 10 μM PYO (Cayman Chemical) was added to in the MM before flushing with N2. Working electrodes were poised to their corresponding potential and biofilms were incubated for an additional 72 hours under N2 flushing at 31° C.\nBiofilm harvesting and processing. After 72 hours of incubation under anoxic conditions, electrode-attached biofilms were rinsed in sterile media. The biofilms within the bottom 3.12 cm^2 of each working electrode were scraped off using a cell scraper (Sarstedt) and resuspended in antibiotic-free MM. Serial dilutions were prepared in sterile antibiotic-free MM and plated on antibiotic-free LB. The rest of the electrode-attached biofilms were incubated at room temperature in freshly-made 2 μM TOTO-1 and 10 μM SYTO-60 (Invitrogen) in MM for 15 minutes and rinsed 2× in sterile MM for 15 minutes. Imaging was done with an upright Zeiss LSM 800 microscope with Airyscan and a 40× oil immersion lens. SYTO-60 was excited with a 561 nm; 0.20% laser and emission was recorded from 580-700 nm. TOTO-1 was excited with a 488 nm; 0.20% laser and emission was recorded from 490 to 580 nm.\nIn order to test the effect of antibiotic in combination with application of a difference in voltage to P. aenuginosa, sub-MICs of gentamicin, meropenem, ciprofloxacin, and colistin were added to anoxic survival reactors set up as described in Examples 1 and 2."}, "[7]": {"settings": "vs NHE at pH7; cited from earlier work"}, "Δphz* biofilms": {"system": "Δphz* biofilms", "assay": "Anoxic survival (CFU) of electrode-attached phenazine-deficient biofilms at poised potential", "format": "cell-based, P. aeruginosa UCBPP-PA14; Δphz*", "settings": "4 μg/mL gentamicin, −400 mV, absence of phenazines", "method": "as §2, with “For PYO-addition experiments, 10 μM PYO (Cayman Chemical) was added to in the MM before flushing with N2. Working electrodes were poised to their corresponding potential and biofilms were incubated for an additional 72 hours under N2 flushing at 31° C.” left out\nBiofilm harvesting and processing. […] SYTO-60 was excited with a 561 nm; 0.20% laser and emission was recorded from 580-700 nm. TOTO-1 was excited with a 488 nm; 0.20% laser and emission was recorded from 490 to 580 nm."}}, "note": "Entries after “also recorded” stand apart in the source; their conditions may differ. Like-named read-outs stand apart in the source and are kept apart here."}
{"compound": "O=C(O)c1cccc2nc3ccccc3nc12", "note": "[Phenazine-1-carboxylate (PCA), Phenazine-1-carboxylate]", "values": [{"measurement": "Support survival?", "setting": "PA14 [1]", "value": "Yes"}, {"measurement": "# of Redox cycles over 7 days", "setting": "PA14 [1]; over 7 days", "value": 22}, {"measurement": "Reduction by PA14?", "setting": "PA14 [2]", "value": "Yes"}, {"measurement": "E1/2 (vs. Ag/AgCl (3M KCl))/mV", "setting": "[3]; pH 5", "value": "−185", "unit": "mV"}, {"measurement": "E1/2 (vs. Ag/AgCl (3M KCl))/mV", "setting": "[3]; pH 6", "value": "−257", "unit": "mV"}, {"measurement": "E1/2 (vs. Ag/AgCl (3M KCl))/mV", "setting": "[3]; pH 7", "value": "−313", "unit": "mV"}, {"measurement": "E0' (vs. NHE) (mV)", "setting": "[4]", "value": "−114^a mV"}, {"measurement": "E1/2 (vs. Ag/AgCl (3M KCl))/mV", "setting": "[5]; pH 5", "value": "−185", "unit": "mV"}, {"measurement": "E1/2 (vs. Ag/AgCl (3M KCl))/mV", "setting": "[5]; pH 6", "value": "−257", "unit": "mV"}, {"measurement": "E1/2 (vs. Ag/AgCl (3M KCl))/mV", "setting": "[5]; pH 7", "value": "−313", "unit": "mV"}]}
{"compound": "NC(=O)c1cccc2nc3ccccc3nc12", "note": "[XXV, phenazine-1-carboxamide]", "values": [{"measurement": "E1/2 (vs. Ag/AgCl (3M KCl))/mV", "setting": "[3]; pH 5", "value": "−205", "unit": "mV"}, {"measurement": "E1/2 (vs. Ag/AgCl (3M KCl))/mV", "setting": "[3]; pH 6", "value": "−278", "unit": "mV"}, {"measurement": "E1/2 (vs. Ag/AgCl (3M KCl))/mV", "setting": "[3]; pH 7", "value": "−337", "unit": "mV"}, {"measurement": "E1/2 (vs. Ag/AgCl (3M KCl))/mV", "setting": "[5]; pH 5", "value": "−205", "unit": "mV"}, {"measurement": "E1/2 (vs. Ag/AgCl (3M KCl))/mV", "setting": "[5]; pH 6", "value": "−278", "unit": "mV"}, {"measurement": "E1/2 (vs. Ag/AgCl (3M KCl))/mV", "setting": "[5]; pH 7", "value": "−337", "unit": "mV"}]}
{"compound": "O=C(O)c1cn(C2CC2)c2cc(N3CCNCC3)c(F)cc2c1=O", "note": "[ciprofloxacin]", "values": [{"measurement": "decrease in cell survival under PYO-reductive conditions compared with OC", "setting": "[6]", "value": "~100", "unit": "×"}]}
{"compound": "NC1=C(C(=O)O)C(=O)c2ccccc2C1=O", "note": "[drawing 45]", "values": [{"measurement": "E1/2 (vs. Ag/AgCl (3M KCl))/mV", "setting": "[3]; pH 7", "value": "−250", "unit": "mV"}]}
{"compound": "C[C@@H](O)[C@H]1C(=O)N2C(C(=O)O)=C(S[C@@H]3CN[C@H](C(=O)N(C)C)C3)[C@H](C)[C@H]12", "note": "[meropenem]", "values": [{"measurement": "decrease in cell survival under PYO-reductive conditions compared with OC", "setting": "[6]", "value": "~100", "unit": "×"}]}
{"compound": "Menaquinone [Menaquinone ox/red]", "values": [{"measurement": "Redox potentials E (mV)", "setting": "[7]", "value": "−75", "unit": "mV"}]}
{"compound": "NAD/NADH", "values": [{"measurement": "midpoint potential vs Ag/AgCl", "setting": "[3]; aqueous environment at pH7", "value": "−600", "unit": "mV"}, {"measurement": "Redox potentials E (mV)", "setting": "[7]", "value": "−320", "unit": "mV"}]}
{"compound": "O2/H2O", "values": [{"measurement": "Redox potentials E (mV)", "setting": "[7]", "value": "+820 mV"}]}
{"compound": "Ubiquinone [Ubiquinone ox/red]", "values": [{"measurement": "Redox potentials E (mV)", "setting": "[7]", "value": "+113 mV"}]}
{"compound": "colistin", "values": [{"measurement": "decrease in CFUs under PYO-oxidative conditions compared with nontreated biofilms", "setting": "[6]; +100 mV, 10 μg/mL colistin vs no antibiotic", "value": 10, "unit": "×"}, {"measurement": "effect on wild type biofilms under PYO-reductive conditions (in words)", "setting": "[6]; −400 mV vs Ag/AgCl", "value": "did not show an additive effect"}]}
{"compound": "gentamicin", "values": [{"measurement": "CFU/cm^2 ± SE, −400 mV (PYO-reductive conditions)", "setting": "[6]; wild type biofilms, 72 h anoxic, −400 mV vs Ag/AgCl, n=3, 4 μg/mL gentamicin, 1 μg/mL meropenem, 4 μg/mL ciprofloxacin", "value": "21.4±10.7", "unit": "CFU/cm^2"}, {"measurement": "effect on wild type biofilms under PYO-reductive conditions (in words)", "setting": "[6]; −400 mV vs Ag/AgCl", "value": "almost fully eradicated WT biofilms; also recorded: almost completely eradicated wild type biofilms"}, {"measurement": "effect on Δphz* biofilms under PYO-reductive conditions (in words)", "setting": "Δphz* biofilms", "value": "did not affect Δphz* biofilms; also recorded: had no effect on the survival of Δphz* biofilms"}]}
